In patent US8501238B2, “Anti-infective agents and uses thereof” (priority 2007, dated 2013) one finds EC50 and IC50 data, which are given here for 17 compounds.

pEC50, pIC50: −log10 of the molar value. Where only a bound is given, the exact number is not on record here.

Experiment [1] deals with genotype 1a-H77 subgenomic replicon cell line. Kind of experiment: microbe, parasite or virus in culture. It counts as cell-based, HCV. The note with it: Hepatitis C virus, 72 h, read-out: EC50 1a.
Experiment [2] has as its system genotype 1b-Con1 subgenomic replicon cell line. Description: microbe, parasite or virus in culture. It counts as cell-based, HCV. The note with it: Hepatitis C virus, 72 h, read-out: EC50 1b.
Experiment [3] addresses T1, HCV polymerase 1A (Δ21 NS5B) (Hepatitis C virus genotype 1a, UniProt P27958).
T1 construct: 20 to 50nM Δ21 NS5B
Description: HCV Polymerase Inhibition Assay (1a). It counts as biochemical. On the procedure:
The reaction was initiated by the addition of 20μM CTP, 20μM ATP, 1μM ^3H-UTP (10mCi/umol), 5nM template RNA and 0.1 U/μl RNase inhibitor (RNasin, Promega), and allowed to proceed for 2 to 4h at room temperature. Reaction volume was 50μl. The reaction was terminated by the addition of 1 volume of 4mM spermine in 10mM Tris-Cl pH 8.0, 1mM EDTA. After incubation for at least 15 min at room temperature, the precipitated RNA was captured by filtering through a GF/B filter (Millipore) in a 96 well format. The filter plate was washed three times with 200μl each of 2mM spermine, 10mM Tris-Cl pH 8.0, lmM EDTA, and 2 times with ethanol. After air-drying, 30μl of Microscint 20 scintillation cocktail (Packard) was added to each well, and the retained cpm were determined by scintillation counting. […] Retained cpm were plotted vs. inhibitor concentration and fit to equation 1 using non-linear regression (ref. 1) to obtain the IC50 values: Retained cpm=A[sqrt{(IC50+It−Et)^2+4*IC50*Et}−([…])]
Ref. Morrison, J. F. and S. R. Stone. […] Approaches to the study and analysis of the inhibition of enzymes by slow- and tight-binding inhibitors. Comments Mol. Cell. Biophys.
(§1) The sequence of the template RNA used was: 5′-[…]-3′

Experiment [4] concerns the target T2, HCV polymerase 1B (Δ21 NS5B) (Hepatitis C virus genotype 1b, UniProt P26663).
T2 construct: 20 to 50nM Δ21 NS5B
Description: biochemical. On the procedure: Either two-fold serial dilutions (fractional inhibition assay) or a narrower range of dilutions spanning the IC50 of the inhibitor (tight binding assay) of the inhibitors were incubated with 20mM Tris-Cl pH 7.4, 2 mM MnCl2, 1 mM dithiothreitol, 1 mM ethylene diamine tetraacetic acid (EDTA), 60 to 125μM GTP and 20 to 50nM Δ21 NS5B (HCV Strain 1B (BK, Genbank accession number M58335, or H77, Genbank accession number AF011751)) for 15min at room temperature. The reaction was initiated by the addition of 20μM CTP, 20μM ATP, 1μM ^3H-UTP (10mCi/umol), 5nM template RNA and 0.1 U/μl RNase inhibitor (RNasin, Promega), and allowed to proceed for 2 to 4h at room temperature. Reaction volume was 50μl. The reaction was terminated by the addition of 1 volume of 4mM spermine in 10mM Tris-Cl pH 8.0, 1mM EDTA. After incubation for at least 15 min at room temperature, the precipitated RNA was captured by filtering through a GF/B filter (Millipore) in a 96 well format. The filter plate was washed three times with 200μl each of 2mM spermine, 10mM Tris-Cl pH 8.0, lmM EDTA, and 2 times with ethanol. After air-drying, 30μl of Microscint 20 scintillation cocktail (Packard) was added to each well, and the retained cpm were determined by scintillation counting. […] Retained cpm were plotted vs. inhibitor concentration and fit to equation 1 using non-linear regression (ref. 1) to obtain the IC50 values: Retained cpm=A[sqrt{(IC50+It−Et)^2+4*IC50*Et}−([…])]
Ref. Morrison, J. F. and S. R. Stone. 1985. Approaches to the study and analysis of the inhibition of enzymes by slow- and tight-binding inhibitors. Comments Mol. Cell. Biophys. 2: 347-368.
as §1

T2 sequence (P26663 2420-2989, stated change not applied): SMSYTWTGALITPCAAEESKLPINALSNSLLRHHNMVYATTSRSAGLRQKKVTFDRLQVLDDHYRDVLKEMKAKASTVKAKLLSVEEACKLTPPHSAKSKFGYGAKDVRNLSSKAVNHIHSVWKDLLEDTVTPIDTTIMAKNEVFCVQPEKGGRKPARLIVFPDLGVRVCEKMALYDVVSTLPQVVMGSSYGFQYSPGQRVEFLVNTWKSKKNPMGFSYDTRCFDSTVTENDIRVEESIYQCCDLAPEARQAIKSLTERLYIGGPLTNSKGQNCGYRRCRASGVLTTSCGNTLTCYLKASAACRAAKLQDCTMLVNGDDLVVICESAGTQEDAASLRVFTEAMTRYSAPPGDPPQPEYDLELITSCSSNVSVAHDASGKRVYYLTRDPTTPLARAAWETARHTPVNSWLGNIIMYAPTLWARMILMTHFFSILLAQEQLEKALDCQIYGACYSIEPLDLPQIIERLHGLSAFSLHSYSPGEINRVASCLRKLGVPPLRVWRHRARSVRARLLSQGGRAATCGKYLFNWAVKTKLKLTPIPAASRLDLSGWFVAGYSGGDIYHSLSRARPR
T1 sequence (P27958 2421-2990, stated change not applied): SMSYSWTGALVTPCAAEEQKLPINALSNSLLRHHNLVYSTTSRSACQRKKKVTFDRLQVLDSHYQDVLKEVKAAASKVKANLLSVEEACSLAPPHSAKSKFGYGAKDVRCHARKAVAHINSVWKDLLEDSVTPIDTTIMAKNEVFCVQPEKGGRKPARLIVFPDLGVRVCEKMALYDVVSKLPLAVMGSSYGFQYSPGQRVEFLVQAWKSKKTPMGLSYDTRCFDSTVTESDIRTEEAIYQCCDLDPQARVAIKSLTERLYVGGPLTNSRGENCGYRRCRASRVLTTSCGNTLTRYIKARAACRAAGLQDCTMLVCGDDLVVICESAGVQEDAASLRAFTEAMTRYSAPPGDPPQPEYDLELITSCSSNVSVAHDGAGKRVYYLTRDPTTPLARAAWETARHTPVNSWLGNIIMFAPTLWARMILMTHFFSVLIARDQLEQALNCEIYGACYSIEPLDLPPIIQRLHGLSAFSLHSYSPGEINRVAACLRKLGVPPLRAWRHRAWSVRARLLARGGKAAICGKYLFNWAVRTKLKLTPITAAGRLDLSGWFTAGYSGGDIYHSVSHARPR

Consider `COc1c(-c2ccc3c(c2)/C(=N/NS(C)(=O)=O)CC3)cc(-n2ccc(=O)[nH]c2=O)cc1-c1cccs1` [IB-L0-2.51, (E)-N′-(6-(5-(2,4-dioxo-3,4-dihydropyrimidin-1(2H)-yl)-2-methoxy-3-(thiophen-2-yl)phenyl)-2,3-dihydro-1H-inden-1-ylidene)methanesulfonohydrazide], for which the figures for the pEC50 in experiment [1] and in experiment [2] were 7.00 to 8.00 and over 8.00, respectively. Besides, the pIC50 in experiment [3] was over 8.00; in experiment [4], 7.00 to 8.00.
Turning to `COc1c(-c2ccc3cc(NS(C)(=O)=O)ccc3c2)cc(-n2ccc(=O)[nH]c2=O)cc1-c1cccs1` [IB-L0-2.61, N-(6-(5-(2,4-dioxo-3,4-dihydropyrimidin-1(2H)-yl)-2-methoxy-3-(thiophen-2-yl)phenyl)naphthalen-2-yl)methanesulfonamide], the pEC50 in experiment [1] was 6.00 to 7.00; in experiment [2] it was 7.00 to 8.00. For the same compound, the results for the pIC50 in experiment [3] and in experiment [4] were over 8.00 and 7.00 to 8.00, respectively.
With `COc1c(-c2ccc3c(C)coc3c2)cc(-n2ccc(=O)[nH]c2=O)cc1C(C)(C)C` [IB-L0-2.42, 1-(3-tert-butyl-4-methoxy-5-(3-methylbenzofuran-6-yl)phenyl)-pyrimidine-2,4(1H,3H)-dione], the pEC50 in experiment [1] and in experiment [2] was 6.00 to 7.00 throughout. Also, the pIC50 in experiment [3] and in experiment [4] was 6.00 to 7.00 each time.
For the compound `COc1c(-c2ccc3cc(NS(C)(=O)=O)ccc3c2)cc(-n2ccc(=O)[nH]c2=O)cc1C(F)(F)F` [IB-L0-2.56, N-(6-(5-(2,4-dioxo-3,4-dihydropyrimidin-1(2H)-yl)-2-methoxy-3-(trifluoromethyl)phenyl)naphthalen-2-yl)methanesulfonamide], the pEC50 in experiment [1] is 6.00 to 7.00; in experiment [2], over 8.00. Besides, the pIC50 in experiment [3] was over 8.00; in experiment [4], 7.00 to 8.00.
Regarding `COc1c(-c2ccc3ccccc3c2)cc(-n2ccc(=O)[nH]c2=O)cc1C(C)(C)C` [IB-L0-2.1, 1-(3-tert-butyl-4-methoxy-5-(naphthalen-2-yl)phenyl)pyrimidine-2,4(1H,3H)-dione], the pEC50 in experiment [1] is under 6.00; in experiment [2] it was 6.00 to 7.00. Moreover, the pIC50 in experiment [3] and in experiment [4] was 6.00 to 7.00 in each case.
As to `COc1c(-c2nc3cc([N+](=O)[O-])ccc3o2)cc(N2CCC(=O)NC2=O)cc1C(C)(C)C` [IA-L0-2.7, 1-(3-tert-butyl-4-methoxy-5-(5-nitrobenzo[d]oxazol-2-yl)phenyl) dihydropyrimidine-2,4(1H,3H)-dione], the pEC50 is under 6.00 in experiment [1] and 6.00 to 7.00 in experiment [2]. The pIC50 in experiment [3] and in experiment [4] was 6.00 to 7.00 in each case.
Consider `COc1c(N2CCc3cc(NS(C)(=O)=O)ccc3C2)cc(-n2ccc(=O)[nH]c2=O)cc1C(C)(C)C` [IB-L0-2.19, N-(2-(3-tert-butyl-5-(2,4-dioxo-3,4-dihydropyrimidin-1(2H)-yl)-2-methoxyphenyl)-1,2,3,4-tetrahydroisoquinolin-6-yl)methanesulfonamide], for which the pEC50 in experiment [1] and in experiment [2] was 7.00 to 8.00 each time. Besides, the pIC50 in experiment [3] was over 8.00; in experiment [4], 7.00 to 8.00.
For the compound `COc1c(-c2ccccc2)cc(-n2ccc(=O)[nH]c2=O)cc1-c1ccc2cc(NS(C)(=O)=O)ccc2c1` [IB-L0-2.71, N-(6-(5-(2,4-dioxo-3,4-dihydropyrimidin-1(2H)-yl)-2-methoxy-biphenyl-3-yl)naphthalen-2-yl)methanesulfonamide], the pEC50 in experiment [1] was 6.00 to 7.00; in experiment [2] it was 7.00 to 8.00. For the same compound, the pIC50 in experiment [3] and in experiment [4] was 6.00 to 7.00 throughout.
Regarding `COc1c(-c2ccoc2)cc(-n2ccc(=O)[nH]c2=O)cc1-c1ccc2cc(NS(C)(=O)=O)ccc2c1` [IB-L0-2.64, N-(6-(5-(2,4-dioxo-3,4-dihydropyrimidin-1(2H)-yl)-3-(furan-3-yl)-2-methoxyphenyl)naphthalen-2-yl)methanesulfonamide], the pEC50 in experiment [1] was 6.00 to 7.00; in experiment [2], over 8.00. In addition, the pIC50 in experiment [3] and in experiment [4] was 7.00 to 8.00 each time.
In the case of `COc1c(-c2nc3cc(NS(C)(=O)=O)ccc3[nH]2)cc(N2CCC(=O)NC2=O)cc1C(C)(C)C` [IA-L0-2.1, N-(2-(3-tert-butyl-5-(2,4-dioxotetrahydropyrimidin-1(2H)-yl)-2-methoxyphenyl)-1H-benzo[d]imidazol-5-yl)methanesulfonamide], the pEC50 in experiment [1] and in experiment [2] was under 6.00 each time. The pIC50 in experiment [3] and in experiment [4] was 6.00 to 7.00 each time.
On to `COc1c(-c2ccsc2)cc(-n2ccc(=O)[nH]c2=O)cc1-c1ccc2cc(NS(C)(=O)=O)ccc2c1` [IB-L0-2.53, N-(6-(5-(2,4-dioxo-3,4-dihydropyrimidin-1(2H)-yl)-2-methoxy-3-(thiophen-3-yl)phenyl)naphthalen-2-yl)methanesulfonamide], for which the pEC50 in experiment [1] and in experiment [2] was 7.00 to 8.00 each time. Further, the values for the pIC50 in experiment [3] and in experiment [4] were over 8.00 and 7.00 to 8.00, respectively.
In the case of `COc1c(-c2nc3cc(NS(C)(=O)=O)ccc3o2)cc(-n2ccc(=O)[nH]c2=O)cc1C(C)(C)C` [IB-L0-2.6, N-(2-(3-tert-butyl-5-(2,4-dioxo-3,4-dihydropyrimidin-1(2H)-yl)-2-methoxyphenyl)benzo[d]oxazol-5-yl)methanesulfonamide], the results for the pEC50 in experiment [1] and in experiment [2] were 6.00 to 7.00 and 7.00 to 8.00, respectively. Further, the pIC50 in experiment [3] and in experiment [4] was 7.00 to 8.00 throughout.
In the case of `COc1c(-c2ccc3c(CNS(C)(=O)=O)noc3c2)cc(-n2ccc(=O)[nH]c2=O)cc1C(C)(C)C` [IB-L0-2.45], the values for the pEC50 in experiment [1] and in experiment [2] were under 6.00 and 6.00 to 7.00, respectively. Moreover, the pIC50 in experiment [3] and in experiment [4] was 6.00 to 7.00 each time.
Regarding `COc1c(-c2ccc3cc(NS(C)(=O)=O)ccc3c2)cc(N2CCC(=O)NC2=O)cc1C(C)(C)C` [IA-L0-2.9, N-(6-(3-tert-butyl-5-(2,4-dioxotetrahydropyrimidin-1(2H)-yl)-2-methoxyphenyl)naphthalen-2-yl)methanesulfonamide], the pEC50 in experiment [1] and in experiment [2] was over 8.00 throughout. Moreover, the pIC50 in experiment [3] and in experiment [4] was over 8.00 each time.
For the compound `COC(=O)c1cc(-n2ccc(=O)[nH]c2=O)cc(-c2ccc3cc(NS(C)(=O)=O)ccc3c2)c1OC` [IB-L0-2.72, methyl 5-(2,4-dioxo-3,4-dihydropyrimidin-1(2H)-yl)-2-methoxy-3-(6-(methylsulfonamido)naphthalen-2-yl)benzoate], the pEC50 in experiment [1] is under 6.00; in experiment [2] it was 6.00 to 7.00. In addition, the pIC50 in experiment [3] and in experiment [4] was 6.00 to 7.00 throughout.
With `COc1c(Br)cc(-n2ccc(=O)[nH]c2=O)cc1-c1ccc2cc(NS(C)(=O)=O)ccc2c1` [IB-L0-2.69, N-(6-(3-bromo-5-(2,4-dioxo-3,4-dihydropyrimidin-1(2H)-yl)-2-methoxyphenyl)naphthalen-2-yl)methanesulfonamide], the results for the pEC50 in experiment [1] and in experiment [2] were 6.00 to 7.00 and 7.00 to 8.00, respectively. For the same compound, the pIC50 in experiment [3] and in experiment [4] was 7.00 to 8.00 in each case.
For `COc1c(-c2ccc3c(c2)CC=C3C(C)(C)NS(C)(=O)=O)cc(-n2ccc(=O)[nH]c2=O)cc1C(C)(C)C` [IB-L0-2.41, N-(2-(6-(3-tert-butyl-5-(2,4-dioxo-3,4-dihydropyrimidin-1(2H)-yl)-2-methoxyphenyl)-1H-inden-3-yl)propan-2-yl)methanesulfonamide], the pEC50 in experiment [1] and in experiment [2] was 6.00 to 7.00 throughout. For the same compound, the pIC50 in experiment [3] and in experiment [4] was 6.00 to 7.00 in each case.
